In ChEMBL document CHEMBL1201862, “PubChem BioAssay data set” (2004):
Active and inactive are the calls of the source. Rule as the data show it, for most assays here: actives have a measured EC50 and inactives only a lower limit.

Key:
[1] = biological target: Cytochrome P450 2D6 (Homo sapiens, UniProt P10635);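 also: CYP2D6 member of a cytochrome P450 panel assay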
[2] = biological target: Paired box protein Pax-8 (Homo sapiens, UniProt Q06710); test: inhibitors of PAX8-driven TPO luciferase reporter, dose response, RMG-I cells, cherry-pick (AID 687027); format: functional, cell-based;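 also: luciferase reporter driven by Pax8 target thyroperoxidase promoter measured by SteadyGlo luminescence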
Paired box protein Pax-8, sequence (Q06710 whole entry): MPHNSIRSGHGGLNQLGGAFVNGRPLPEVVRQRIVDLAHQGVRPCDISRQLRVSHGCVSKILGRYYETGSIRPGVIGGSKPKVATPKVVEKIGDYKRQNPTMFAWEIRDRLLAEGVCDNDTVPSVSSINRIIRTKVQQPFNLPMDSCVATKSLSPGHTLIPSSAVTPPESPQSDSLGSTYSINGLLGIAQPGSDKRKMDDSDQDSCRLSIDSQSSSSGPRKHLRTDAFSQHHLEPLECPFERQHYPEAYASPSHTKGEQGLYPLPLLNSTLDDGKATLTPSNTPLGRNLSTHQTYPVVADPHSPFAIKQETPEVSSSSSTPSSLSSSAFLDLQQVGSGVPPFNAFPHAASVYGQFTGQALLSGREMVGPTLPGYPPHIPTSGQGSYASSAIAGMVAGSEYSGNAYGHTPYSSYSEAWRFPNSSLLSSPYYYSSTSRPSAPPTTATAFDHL

[3] = cells; format: functional
[4] = biological target: T1, Rac GTPase-activating protein 1 (Homo sapiens, UniProt Q9H0H5); test: MgcRacGAP GTPase-activating activity inhibitors, confirmation, biochemical, ADP Hunter fluorescence, primary and confirmatory (AID 624330); format: functional
T1 sequence (Q9H0H5 whole entry): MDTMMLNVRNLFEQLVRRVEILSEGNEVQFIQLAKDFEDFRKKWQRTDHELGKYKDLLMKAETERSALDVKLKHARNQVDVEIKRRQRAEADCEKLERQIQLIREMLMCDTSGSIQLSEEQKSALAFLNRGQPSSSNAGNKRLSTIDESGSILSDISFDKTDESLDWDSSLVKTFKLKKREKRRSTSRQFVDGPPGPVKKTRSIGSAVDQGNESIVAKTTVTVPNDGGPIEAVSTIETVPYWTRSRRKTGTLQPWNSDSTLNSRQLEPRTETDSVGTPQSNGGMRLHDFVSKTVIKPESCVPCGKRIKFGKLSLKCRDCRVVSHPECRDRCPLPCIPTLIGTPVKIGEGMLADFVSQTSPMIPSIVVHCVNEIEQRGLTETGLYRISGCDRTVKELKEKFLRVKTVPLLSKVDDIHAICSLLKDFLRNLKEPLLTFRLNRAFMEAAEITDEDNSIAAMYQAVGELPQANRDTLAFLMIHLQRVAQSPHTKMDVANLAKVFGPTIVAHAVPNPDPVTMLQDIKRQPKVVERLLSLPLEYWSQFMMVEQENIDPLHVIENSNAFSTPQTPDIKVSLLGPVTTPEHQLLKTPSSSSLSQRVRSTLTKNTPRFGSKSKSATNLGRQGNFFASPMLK

[5] = inhibitors of intracellular T. cruzi replication, confirmation, NIH3T3 host cells, beta-gal luminescence (AID 2044); format: functional, cell-based;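 also: intracellular parasites grown in NIH/3T3 mouse fibroblasts as host cells; luminescent beta-galactosidase reporter signal from transgenic T. cruzi replicating inside host cells; inhibitors lower the luminescence signal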
[6] = cytotoxicity toward NIH3T3 fibroblasts, dose response, counter-screen, cell-based, ATP luminescence, mouse fibroblasts (AID 2010); format: functional;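 also: cells exposed to compound for about 90 hours before reading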
[7] = inhibitors of firefly luciferase expression or activity, dose response, H4 neuroglioma cells, luminescence (AID 1990); format: functional, cell-based
[8] = Luminescence Cell-Based Dose Response HTS to Identify Inhibitors of 5'UTR Stem-Loop Driven Prion Protein mRNA Translation in H4 Neuroglioblastoma Cells. [Related pubchem assays: 1827 (Project Summary), 1813 (Primary HTS)]; format: functional
[9] = inhibitors of SNCA 5'UTR-driven reporter translation, confirmation, H4 neuroglioma cells, luminescence (AID 1988); format: functional, cell-based
[10] = biological target: T2, Streptokinase A (Streptococcus pyogenes serotype M1, UniProt P10520); test: S. pyogenes streptokinase expression inhibitors, potency, dose response, plasminogen activation absorbance, OD405 (AID 1914); format: functional, Streptococcus pyogenes M1 GAS;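 also: secreted streptokinase activity via plasminogen activation per viability signal from cell pellet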
T2 sequence (P10520 whole entry): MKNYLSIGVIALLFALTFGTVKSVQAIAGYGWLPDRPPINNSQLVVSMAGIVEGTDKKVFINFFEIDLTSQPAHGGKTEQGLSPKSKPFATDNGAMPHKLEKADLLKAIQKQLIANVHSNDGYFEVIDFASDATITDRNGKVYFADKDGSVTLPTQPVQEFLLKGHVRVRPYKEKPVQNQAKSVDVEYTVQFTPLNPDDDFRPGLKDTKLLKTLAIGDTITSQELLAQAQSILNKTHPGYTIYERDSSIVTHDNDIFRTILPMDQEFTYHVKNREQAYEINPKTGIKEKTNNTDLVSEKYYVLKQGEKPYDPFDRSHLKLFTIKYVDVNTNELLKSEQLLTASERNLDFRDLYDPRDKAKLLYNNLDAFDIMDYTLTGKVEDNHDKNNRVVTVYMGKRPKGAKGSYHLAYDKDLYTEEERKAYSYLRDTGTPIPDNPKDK

[11] = system: Streptococcus; test: Group A Streptococcus viability loss, dose response, counter-screen for streptokinase expression inhibitor project, luminescence, BacTiterGlo (AID 1915); format: functional, organism-based;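 also: potency for reduction of bacterial viability or growth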
[12] = system: Streptococcus sp. 'group A'; test: growth inhibition of control SK(-) GAS strain, dose response, counter-screen for streptokinase expression inhibitor project, luminescence, kanamycin, BacTiterGlo, confirmation (AID 1900); format: functional, organism-based
[13] = biological target: T3, Heat shock factor protein 1 (Mus musculus, UniProt P38532); test: inhibition of MG132-induced HSE-luciferase signal, confirmation, cell-based, NIH3T3, luminescence, dose retest (AID 2382); format: functional;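 also: NIH3T3 fibroblasts with HSF1-driven luciferase reporter stressed by proteasome inhibitor MG132; luminescence from HSF1-driven luciferase expression after 8 hours of MG132 stress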
T3 sequence (P38532 whole entry): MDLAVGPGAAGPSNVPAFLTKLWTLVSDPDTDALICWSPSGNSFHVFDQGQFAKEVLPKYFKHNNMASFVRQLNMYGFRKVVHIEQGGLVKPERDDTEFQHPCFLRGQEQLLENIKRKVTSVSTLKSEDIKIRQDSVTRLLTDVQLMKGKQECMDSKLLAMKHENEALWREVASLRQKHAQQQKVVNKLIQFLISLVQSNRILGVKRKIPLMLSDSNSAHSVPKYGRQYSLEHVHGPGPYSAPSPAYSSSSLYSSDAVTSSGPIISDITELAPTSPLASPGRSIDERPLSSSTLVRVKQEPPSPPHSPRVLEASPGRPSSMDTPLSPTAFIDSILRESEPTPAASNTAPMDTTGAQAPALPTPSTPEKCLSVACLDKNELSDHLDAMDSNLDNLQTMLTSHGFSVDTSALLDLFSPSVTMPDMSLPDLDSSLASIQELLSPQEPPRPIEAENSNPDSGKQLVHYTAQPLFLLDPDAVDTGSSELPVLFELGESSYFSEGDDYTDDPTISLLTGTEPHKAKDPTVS

Cytochrome P450 2D6, sequence (P10635 whole entry): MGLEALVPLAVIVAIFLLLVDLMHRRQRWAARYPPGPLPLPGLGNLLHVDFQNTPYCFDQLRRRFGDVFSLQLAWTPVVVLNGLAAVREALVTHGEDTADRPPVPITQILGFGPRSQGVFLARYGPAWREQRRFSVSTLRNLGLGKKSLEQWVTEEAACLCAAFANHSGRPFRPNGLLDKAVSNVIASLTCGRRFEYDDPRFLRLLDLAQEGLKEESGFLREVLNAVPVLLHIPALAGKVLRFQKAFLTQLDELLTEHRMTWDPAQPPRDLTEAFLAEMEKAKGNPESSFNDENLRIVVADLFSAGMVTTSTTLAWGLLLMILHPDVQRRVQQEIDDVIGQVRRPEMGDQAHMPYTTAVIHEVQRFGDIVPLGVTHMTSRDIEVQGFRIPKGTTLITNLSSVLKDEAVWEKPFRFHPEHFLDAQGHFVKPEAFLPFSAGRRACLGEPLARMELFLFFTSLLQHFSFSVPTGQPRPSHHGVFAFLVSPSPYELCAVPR

With `COc1ccccc1-c1ccc2ncnc(NCCN3CCOCC3)c2c1` the AC50 [1] was 39.8 µM (inconclusive).
For `C[C@@H]1CCCCO[C@H](CN(C)CC2CCCCC2)[C@H](C)CN([C@H](C)CO)C(=O)c2cc(NS(=O)(=O)c3ccc(Cl)cc3)ccc2O1`, the AC50 [2] was 5.21 µM (active).
With `O=C(OCC(=O)N1CCc2ccccc21)c1ccc([N+](=O)[O-])cc1` the IC50 [3] was 7.65 µM (active).
For `CC(=O)Nc1cccc2cc(O)ccc12`, the IC50 [4] was 36.8 µM (active).
For `COc1cccc(NC(=O)c2cc3ccccc3oc2=O)c1`, the IC50 [3] was 34.4 µM (active).
For `CC(C)CN(Cc1c(O)ccc2ccccc12)CC(C)C`, the IC50 [4] was 47.5 µM (active).
In the case of `Clc1cccc(N/N=C/c2ccc(N3CCOCC3)cc2)c1`, the AC50 [1] is reported as 7.08 µM (inconclusive), the EC50 [5] is reported as 2.74 µM (active) and the EC50 [6] is reported as > 60 µM (not active).
With `Cn1c(C[S+]([O-])Cc2c(Cl)cccc2Cl)nnc1SCc1ccc(Cl)cc1` (stereo not given) the EC50 [7] was > 120 µM (not active), the EC50 [8] was > 120 µM (not active) and the EC50 [9] was 13.8 µM (active).
With `O=C(c1ccco1)N1N=C(c2ccc(Br)cc2)CC1(O)C(F)(F)F` (stereo not given) the AC50 [2] was 27.1 µM (active).
With `Sc1nnc(C2CCCCC2)n1/N=C/c1cccc(Cl)c1Cl` the EC50 [10] was > 150 µM (not active), the EC50 [7] was 15.2 µM (active) and the EC50 [8] was > 120 µM (not active). For the same compound, the EC50 [9] was 15.1 µM (active), the EC50 [11] was 7.5 µM (active) and the EC50 [12] was 4.7 µM (active).
For `CCCCNCC#CCOc1cc(C)ccc1C(C)C`, the IC50 [4] was 196 µM (active).
In the case of `N#C/C(=C/c1ccc(Br)o1)C(N)=O`, the EC50 [13] is reported as > 195 µM (not active).
With `CN1CC[C@@]2(CCCN(C(=O)c3csnn3)C2)C1` the AC50 [1] was 39.8 µM (inconclusive).
In the case of `COc1ccc(NCC(O)Cn2c(C)c(C)c3ccccc32)cc1` (stereo not given), the IC50 [4] is reported as 70.7 µM (active).
For `Cc1nc(Cl)cc(N/N=C/c2ccc(O)cc2O)n1`, the IC50 [4] was 16.6 µM (active).
In the case of `COc1ccc(/C=N/NC(=O)c2ccncc2)cc1COc1ccc(NC(C)=O)cc1`, the EC50 [7] is reported as > 120 µM (not active), the EC50 [8] is reported as > 120 µM (not active) and the EC50 [9] is reported as > 120 µM (not active).
In the case of `Cc1cccc(NC(=O)N(Cc2nc(O)c3ccccc3n2)C2CCCC2)c1`, the AC50 [1] is reported as 39.8 µM (inconclusive).
In the case of `CC(C)(C)c1ccc(/C=N/N2C(=O)CSC2=S)cc1`, the EC50 [13] is reported as 44.1 µM (active).
With `Clc1ccccc1-c1nc(/C=N/N2CCOCC2)c2ccccn12` the IC50 [4] was 33.6 µM (active).
